Results as given in PubChem BioAssay AID200 (DTP/NCI, 2004).
Values joined by “and” are separate entries in the source; they are usually repeats but may differ in a detail not shown here. Equal entries are not always repeated. Toxic doses and inconclusive results are not listed. Where a SMILES comes first, the peptide text is derived from it. The star is where a group is joined. Cbz = O=C(OCc1ccccc1)*

Tested on: B6C3F1 mice, B16 melanoma ip, median survival T/C
Assay: NCI In Vivo Anticancer Drug Screen. Data for tumor model B16 Melanoma (intraperitoneal) in B6C3F1 mice
Details: endpoint: median survival time, higher = longer survival
Procedure: The antitumor activity of compounds was measured in mice bearing transplantable tumors. Survival or tumor size were measured and the results are expressed as the measurement made in the treated group (T) divided by the measurement made in the vehicle treated control group (C). The tumor model used in this assay is B16 Melanoma (intraperitoneal) in B6C3F1 mice

[1] = dose: 12.5 mg/kg/injection, schedule: Q01DX009 (ip), vehicle: saline
[2] = dose: 25.0 mg/kg/injection, schedule: Q01DX009 (ip), vehicle: saline
[3] = dose: 50.0 mg/kg/injection, schedule: Q01DX009 (ip), vehicle: saline
[4] = dose: 100.0 mg/kg/injection, schedule: Q01DX009 (ip), vehicle: saline
[5] = dose: 200.0 mg/kg/injection, schedule: Q01DX009 (ip), vehicle: saline
[6] = dose: 5.0 mg/kg/injection, schedule: Q01DX009 (ip), vehicle: saline with Tween-80
[7] = dose: 10.0 mg/kg/injection, schedule: Q01DX009 (ip), vehicle: saline with Tween-80
[8] = dose: 12.5 mg/kg/injection, schedule: Q01DX009 (ip), vehicle: suspension in saline
[9] = dose: 100.0 mg/kg/injection, schedule: Q01DX009 (ip), vehicle: saline with Tween-80
[10] = dose: 200.0 mg/kg/injection, schedule: Q01DX009 (ip), vehicle: saline with Tween-80

C=CCSc1ncnc2c1ncn2C1OC(CO)C(O)C1O (stereo not drawn)
T/C (dose: 37.5 mg/kg/injection, schedule: Q01DX009 (ip), vehicle: saline with Tween-80): 102 % of control | T/C (dose: 75.0 mg/kg/injection, schedule: Q01DX009 (ip), vehicle: saline with Tween-80): 90 % of control | T/C (dose: 150.0 mg/kg/injection, schedule: Q01DX009 (ip), vehicle: saline with Tween-80): 97 % of control

O=C1C(O)=C(c2ccccc2)C(=O)C(O)=C1c1ccccc1
T/C (dose: 3.12 mg/kg/injection, schedule: Q01DX009 (ip), vehicle: saline): 109 % of control | T/C (dose: 6.25 mg/kg/injection, schedule: Q01DX009 (ip), vehicle: saline): 100 % of control | T/C [1]: 91 % of control and 101 % of control | T/C [2]: 109 % of control and 117 % of control | T/C [3]: 108 % of control and 112 % of control

COc1cc2cc(c1Cl)N(C)C(=O)CC(O)C1(C)OC1C(C)C1CC(O)(NC(=O)O1)C(OC)/C=C/C=C(C)C2OC (stereo not drawn)
T/C (dose: 4.0 micrograms/kg/injection, schedule: Q01DX009 (ip), vehicle: distilled water + alcohol): 105 % of control | T/C (dose: 8.0 micrograms/kg/injection, schedule: Q01DX009 (ip), vehicle: distilled water + alcohol): 96 % of control | T/C (dose: 16.0 micrograms/kg/injection, schedule: Q01DX009 (ip), vehicle: distilled water + alcohol): 102 % of control | T/C (dose: 32.0 micrograms/kg/injection, schedule: Q01DX009 (ip), vehicle: distilled water + alcohol): 88 % of control

CN1c2ccc3ccccc3c2Sc2ccc3ccccc3c21
T/C [4]: 100 % of control | T/C [5]: 100 % of control | T/C (dose: 400.0 mg/kg/injection, schedule: Q01DX009 (ip), vehicle: saline): 118 % of control

COC1=CC(=O)c2c(O)cc(OC)c(O)c2C1=O
T/C (dose: 1.25 mg/kg/injection, schedule: Q01DX009 (ip), vehicle: saline with Tween-80): 105 % of control | T/C (dose: 2.5 mg/kg/injection, schedule: Q01DX009 (ip), vehicle: saline with Tween-80): 121 % of control | T/C [6]: 121 % of control | T/C [7]: 121 % of control

CC(O)CNC1c2ccccc2CC1O (stereo not drawn)
T/C [2]: 90 % of control | T/C [3]: 93 % of control | T/C [4]: 89 % of control

Cc1ccc([NH-])c([NH-])c1.[Cl][Pt+2][Cl]
T/C (dose: 0.63 mg/kg/injection, schedule: Q01DX009 (ip), vehicle: saline with Tween-80): 114 % of control | T/C [6]: 157 % of control | T/C [7]: 160 % of control

COc1ccc2c(c1)/C(=C/CCN(C)C)c1ccccc1S2
T/C [1]: 101 % of control | T/C [2]: 101 % of control | T/C [3]: 101 % of control

Nc1ncnc2c1ncn2C1OC(CO)CC1O (stereo not drawn)
T/C (dose: 37.5 mg/kg/injection, schedule: Q01DX009 (ip), vehicle: Klucel (hydroxypropylcellulose) (HPC)): 121 % of control | T/C (dose: 75.0 mg/kg/injection, schedule: Q01DX009 (ip), vehicle: Klucel (hydroxypropylcellulose) (HPC)): 123 % of control

N#CCCN(C(=S)Nc1cccc(C(F)(F)F)c1)C1CCCCC1
T/C [8]: 102 % of control | T/C (dose: 25.0 mg/kg/injection, schedule: Q01DX009 (ip), vehicle: suspension in saline): 100 % of control | T/C (dose: 50.0 mg/kg/injection, schedule: Q01DX009 (ip), vehicle: suspension in saline): 101 % of control | T/C [9]: 113 % of control | T/C (dose: 100.0 mg/kg/injection, schedule: Q01DX009 (ip), vehicle: suspension in saline): 107 % of control | T/C [10]: 94 % of control | T/C (dose: 200.0 mg/kg/injection, schedule: Q01DX009 (ip), vehicle: suspension in saline): 113 % of control | T/C (dose: 400.0 mg/kg/injection, schedule: Q01DX009 (ip), vehicle: saline with Tween-80): 89 % of control | T/C (dose: 400.0 mg/kg/injection, schedule: Q01DX009 (ip), vehicle: suspension in saline): 103 % of control

Cc1cc(=NO)cc(C)n1O
T/C (dose: 25.0 mg/kg/injection, schedule: Q01DX009 (ip), vehicle: distilled water + alcohol): 109 % of control and 94 % of control | T/C (dose: 50.0 mg/kg/injection, schedule: Q01DX009 (ip), vehicle: distilled water + alcohol): 98 % of control and 105 % of control | T/C (dose: 100.0 mg/kg/injection, schedule: Q01DX009 (ip), vehicle: distilled water + alcohol): 87 % of control and 92 % of control | T/C (dose: 200.0 mg/kg/injection, schedule: Q01DX009 (ip), vehicle: distilled water + alcohol): 92 % of control | T/C (dose: 400.0 mg/kg/injection, schedule: Q01DX009 (ip), vehicle: distilled water + alcohol): 86 % of control and 89 % of control

COc1cc(NS(C)(=O)=O)ccc1Nc1c2ccccc2nc2ccccc12
T/C (dose: 0.5 mg/kg/injection, schedule: Q01DX009 (ip), vehicle: other): 166 % of control and 168 % of control | T/C (dose: 1.0 mg/kg/injection, schedule: Q01DX005 (ip), vehicle: other): 195 % of control | T/C (dose: 1.0 mg/kg/injection, schedule: Q01DX005 (iv), vehicle: other): 101 % of control | T/C (dose: 1.0 mg/kg/injection, schedule: Q01DX011 (ip), vehicle: saline with Tween-80): 175 % of control | T/C (dose: 2.0 mg/kg/injection, schedule: Q01DX005 (ip), vehicle: clinical formulation): 177 % of control | T/C (dose: 2.0 mg/kg/injection, schedule: Q01DX005 (iv), vehicle: clinical formulation): 99 % of control | T/C (dose: 2.0 mg/kg/injection, schedule: Q01DX005 (oral), vehicle: other): 100 % of control | T/C (dose: 2.0 mg/kg/injection, schedule: Q01DX009 (ip), vehicle: saline with Tween-80): 193 % of control | T/C (dose: 2.0 mg/kg/injection, schedule: Q01DX011 (ip), vehicle: saline with Tween-80): 209 % of control | T/C (dose: 4.0 mg/kg/injection, schedule: Q01DX005 (ip), vehicle: clinical formulation): 275 % of control | T/C (dose: 4.0 mg/kg/injection, schedule: Q01DX005 (oral), vehicle: other): 104 % of control | T/C (dose: 4.0 mg/kg/injection, schedule: Q01DX009 (ip), vehicle: saline with Tween-80): 253 % of control | T/C (dose: 4.0 mg/kg/injection, schedule: Q01DX009 (ip), vehicle: saline): 187 % of control and 213 % of control and 222 % of control | T/C (dose: 4.0 mg/kg/injection, schedule: Q01DX011 (ip), vehicle: saline with Tween-80): 63 % of control | T/C (dose: 4.0 mg/kg/injection, schedule: Q01DX011 (oral), vehicle: saline with Tween-80): 98 % of control | T/C (dose: 8.0 mg/kg/injection, schedule: Q01DX001 (iv), vehicle: clinical formulation): 105 % of control | T/C (dose: 8.0 mg/kg/injection, schedule: Q01DX005 (oral), vehicle: other): 103 % of control | T/C (dose: 8.0 mg/kg/injection, schedule: Q01DX009 (ip), vehicle: saline with Tween-80): 283 % of control | T/C (dose: 8.0 mg/kg/injection, schedule: Q01DX011 (oral), vehicle: saline with Tween-80): 92 % of control | T/C (dose: 16.0 mg/kg/injection, schedule: Q01DX001 (iv), vehicle: clinical formulation): 112 % of control

CC(Br)C(=O)NC(Cc1ccccc1)C(=O)O (stereo not drawn)
T/C [1]: 104 % of control | T/C [2]: 95 % of control | T/C [3]: 102 % of control

Cc1ccccc1N(CC1CO1)CC1CO1 (stereo not drawn)
T/C [1]: 113 % of control | T/C [2]: 105 % of control | T/C [3]: 100 % of control | T/C [4]: 116 % of control | T/C [5]: 124 % of control

Cc1c2cc[n+](CCN3CCCCC3)cc2c(C)c2c1[nH]c1ccc(O)cc12
T/C (dose: 6.25 mg/kg/injection, schedule: Q01DX009 (ip), vehicle: suspension in saline): 153 % of control | T/C [8]: 204 % of control | T/C [2]: 172 % of control and 189 % of control

CCCCCCCCCCCCCCCCCC1=NC(C)CC(C)(C)O1 (stereo not drawn)
T/C [3]: 96 % of control | T/C [4]: 94 % of control | T/C [5]: 94 % of control

O=C1C(Cl)=C(Cl)C(=O)C2=C1C1c3ccccc3C2c2ccccc21
T/C [9]: 94 % of control | T/C [10]: 86 % of control

COc1ccc2c(c1)CCn1c(C)c(COC(=O)NC(C)C)c(COC(=O)NC(C)C)c1-2
T/C (dose: 1.5 mg/kg/injection, schedule: Q01DX009 (ip), vehicle: distilled water + Tween-80): 114 % of control | T/C (dose: 3.0 mg/kg/injection, schedule: Q01DX009 (ip), vehicle: distilled water + Tween-80): 154 % of control | T/C (dose: 3.12 mg/kg/injection, schedule: Q01DX009 (ip), vehicle: distilled water + Tween-80): 150 % of control | T/C (dose: 12.0 mg/kg/injection, schedule: Q01DX009 (ip), vehicle: distilled water + Tween-80): 163 % of control | T/C (dose: 12.5 mg/kg/injection, schedule: Q01DX009 (ip), vehicle: distilled water + Tween-80): 180 % of control

COC(=O)C(NC(=O)C(NC(=O)OCc1ccccc1)C(C)O)C(C)C (stereo not drawn) (Cbz-Thr-Val-OMe; configuration not given here)
T/C (dose: 100.0 mg/kg/injection, schedule: Q01DX009 (ip), vehicle: Klucel (hydroxypropylcellulose) (HPC)): 94 % of control | T/C (dose: 200.0 mg/kg/injection, schedule: Q01DX009 (ip), vehicle: Klucel (hydroxypropylcellulose) (HPC)): 93 % of control | T/C (dose: 400.0 mg/kg/injection, schedule: Q01DX009 (ip), vehicle: Klucel (hydroxypropylcellulose) (HPC)): 108 % of control
